Reference: patent US20070213402A1, “Compounds which interact with the thyroid hormone receptor for the treatment of fibrotic disease” (priority 1998, published 2007)

Assays:
collagenase I promoter = experiment: Experiment 1: collagenase I promoter (-73/+63)-luciferase in CV1 cells transfected with GR1 (glucocorticoid receptor); format: cell-based, African Green Monkey; conditions: for % control (GR1): Blank = 100
Text: (§1) Two plasmid constructs were introduced by standard calcium phosphate precipitation of DNA followed by glycerol shock (Ausubel F M, Brent R, Kingston D D, Moore J G et al Current protocols in molecular biology 1994 Greene Publishing Associates/Wiley-Interscience, New York, N.Y.) using a transformed African Green Monkey kidney cell line (CV1) (Schneikert J, Peterziel H, Defossez P-A, Klocker H, de Launoit Y and Cato A C B Androgen receptor-Ets protein interaction is a novel mechanism for steroid hormone-mediated down-modulation of matrix metalloproteinase expression, Journal of Biological Chemistry. Vol 271(39) (pp 23907-23913), 1996).
Accordingly, the following two plasmids were included into CV1 cells described above — • (a) Either of GR1 or pSG5ARF containing glucocorticoid or androgen receptor (AR) respectively, both at 2 ug per 5×10^5 cells, driven by the Rous sarcoma virus promoter, and • (b) a plasmid containing the −73/+63 portion of the collagenase I promoter linked to luciferase gene at 8 ug per 5×10^5 cells.
CPII was compound II above, clobuzarit.

NFκB = experiment: Experiment 3: NFκB-driven 3-EnhTK-Luc reporter in CV1 cells with GR1; format: cell-based, African Green Monkey; conditions: for % Control: Blank = 100
Text: as §1
This experiment was intended to show the effect of compounds I on a mediator of the immune response, nuclear factor—κB (NF-κB).
The following two plasmids were included into CV1 cells described above— • (a) GR1 as described above at 2 ug per 5×10^5 cells, and • (b) a plasmid designated 3-EnhTK-Luc (at 0.5 ug per 5×10^5 cells) which contains a transcription site that is activated by NFκB.
The blank represented the inclusion of these two plasmids alone; the relatively high value was caused by (i) the high level of serum in the culture, and (ii) the associated stress that the cells underwent during the […]—both of which upregulate NFκB. There was also a related relatively low activation of TNF (at 4 ng/ml) above a serum containing blank in the experiment. TNF was tumour necrosis factor alpha.

[1] = test system: collagenase (MMP-1) promoter; experiment: Experiment 4.3: collagenase (MMP-1) promoter-luciferase in MCF-7 cells with transfected chick thyroid hormone receptor; format: cell-based, human; conditions: MCF-7 + chick thyroid hormone receptor; for % Control: Blank = 100
Method: These experiments were intended to identify the receptor through which compounds I might be acting to block collagenase promoter activity.
Transfection procedure hereinbefore described with CV1 cells was repeated using MCF-7 mammary breast cancer cells derived from pleural effusion from a breast cancer patient. Additionally, each experiment included transfection of a plasmid (at 8 ug per 5×10^5 cells) containing the −517/+63 section of the collagenase (MMP-1) promoter linked to the luciferase gene. TPA was used as above to stimulate activity of the collagenase promoter resulting in luciferase production. Compound II or 3,3,5-triiodo-L-thyronine (T3) was included (both at 10^−8M), the latter being a known ligand for the thyroid hormone receptor.

[2] = substance added with TPA 75 ng/ml, Dex 10^-7M
[3] = substance added alone, TNF 4 ng/ml
[4] = substance added with TNF 4 ng/ml
[5] = substance 10^-8M added with TPA

Which “% control (GR1)” value (collagenase I promoter; substance added alone) does the source give for `CC(C)(OCc1ccc(-c2ccc(Cl)cc2)cc1)C(=O)O` [Compound II, 1-[4-(4-chlorophenyl)benzyloxy]-1-methylpropionic acid] here?
Its value is 48%.

What about the “Raw counts (GR1)” value (collagenase I promoter; substance added alone, TPA 75 ng/ml) of the same compound?
The value was 6151 counts.

And the “Raw counts (GR1)” value (collagenase I promoter; [2])?
The value was 39968 counts.

What about the “% control (GR1)” value (collagenase I promoter; [2]) of the same compound?
Its value is 311%.

What about the “collagenase I activation, in words (GR1)” value (collagenase I promoter; TPA-stimulated, glucocorticoid receptor) of the same compound?
Its value is “able to down regulate collagenase I activation”.

What about the Raw Counts (NFκB; [3]) of the same compound?
Its Raw Counts is 75812 counts.

And the “% Control” value (NFκB; [3])?
Its value is 127%.

And the Raw Counts (NFκB; [4])?
The Raw Counts was 135886 counts.

And the “% Control” value (NFκB; [4])?
The value was 228%.

And the “upregulation of transcriptional activity by NFκB, in words” value (NFκB; versus background value)?
Its value is “not able to upregulate transcriptional activity by NFκB”.

And the “inhibitory effect on NFκB transcription, in words” value (NFκB; with TNF)?
The value was “lack of inhibitory effect”.

And the “stimulated collagenase transcription, in words” value ([1]; TPA)?
Its value is “able to reduce stimulated collagenase transcription”.

What about the “Raw Counts” value [1, 5] of the same compound?
Its value is 4414 counts.

What about the “% Control” value [1, 5] of the same compound?
The value was 202%.

And the “% Control” value ([1]; substance added alone)?
Its value is 72%.

What about the “Raw Counts” value ([1]; substance added alone, CPII 10^-8M) of the same compound?
The value was 1572 counts.
